Test results reported in patent US20060288450A1, “Plant N-acylethanolamine binding proteins” (Samuel Roberts Noble Foundation, priority 2004, published 2006).

Legend:
[1] = system: membrane-associated NAE-binding activities; settings: cited from earlier work; for challenge of [3H]NAE 14:0 binding by CB receptor antagonist: plant membranes
[2] = system: NAE binding protein (At1g26440); test: [3H]NAE 14:0 radioligand binding to recombinant At1g26440 protein expressed in E. coli; parameters: species or system Arabidopsis thaliana
Protocol: FIG. 4 Full length cDNAs synthesized through RT-PCR on Arabidopsis total RNA using gene specific primers to At1g26440 were cloned into pTrc His2 expression vector and the recombinant protein over expressed in E. coli Top10 competent cells (Invitrogen, Cat. No. K4400-01 and K4400-40). Positive clones selected on amp-glucose agar plates were analyzed for producing NAE 14:0 binding protein by using [^3H]NAE 14:0 binding assay (Tripathy et al., 2003). Bacterial lysate (L) prepared from pelleted positive clones induced with IPTG for recombinant protein production was used as the protein source. T10-1, T-10-2, T10-3: Positive clones carrying A. thaliana NAE-binding protein (At1g26440); T10-4: Negative clone carrying the gene sequence in reverse orientation; T10-0: Control Top10 cells. Binding assay was performed on cell lysate (L) and the affinity purified (ProBond purification system, Invitrogen) recombinant protein (P) fraction. Histograms represent binding activity (from two studies with four replicates each).
FIG. 5 Saturation binding of [^3H]NAE 14:0 to a candidate NAE binding protein (At1g26440) expressed in E. coli Top10 cell lysate. The candidate NAE binding protein was a full-length, in-frame cDNA. […]
[^3H]NAE 14:0 radioligand was synthesized from [9,10-^3H(N)]myristic acid (PerkinElmer Life Sciences, Boston) in a modified two step reaction (Hillard et al., 1995; Devane et al., 1992). […] The [^3H]NAE 14:0 formed was further purified and quantified by separating on thin layer chromatography (TLC) and radiometric scanning respectively (Tripathy et al., 2003).
Binding activity of [^3H]NAE 14:0 was carried out with DDM-solubilized microsomes from Arabidopsis (ecotype, columbia) leaves (Tripathy et al., 2003b) or recombinant protein produced in E. coli and solubilized in DDM. […] Unbound ligands were washed off with ice cold binding buffer (75 mM potassium-phosphate buffer, pH 7.2, 300 mM sucrose, 7.5 mM KCl, 0.75 mM EDTA, 0.75 mM EGTA, 0.5 mM ascorbate, 5 mM DTT, and 1.5% BSA) under vacuum and frozen filters were excised into scintillation cocktail for radioactivity estimation.

[3] = system: Arabidopsis microsomal protein; test: [3H]NAE 14:0 radioligand binding to Arabidopsis leaf microsomes; parameters: species or system Arabidopsis thaliana; settings: 5 nM SR144528, [3H]NAE 14:0 50 nM
Protocol: FIG. 1. Analysis of specific binding of [^3H]NAE 14:0 to DDM solubilized (0.2 mM) microsomes (25 μg of protein) isolated from A. thaliana (ecotype Columbia) leaves (150,000×g) with a concentration ranging from 10 to 80 nM. Specific binding was determined by subtracting nonspecific binding (binding in the presence of 1,500× nonradioactive NAE 14:0) values from total radioligand binding values in duplicate assays. Binding affinity and Bmax of [^3H]NAE 14:0 was estimated by fitting the saturation binding data to nonlinear regression analysis for a one-site binding equation using Prism 3.0, Graphpad software, San Diego.
FIG. 7 Microsomes from A. thaliana leaves and affinity purified (P) protein from T10-1 cell lysate were incubated with [^3H]NAE 14:0 (50 nM) in the presence and absence of CB receptor antagonist SR144528 (5 nM) to compare the influence on [3H]NAE binding. Values represent means of triplicate assays from an individual experiment reproduced twice.
[^3H]NAE 14:0 radioligand was synthesized from [9,10-^3H(N)]myristic acid (PerkinElmer Life Sciences, Boston) in a modified two step reaction (Hillard et al., 1995; Devane et al., 1992). In step one, acylchloride is prepared from [3 H] […] The [^3H]NAE 14:0 formed was further purified and quantified by separating on thin layer chromatography (TLC) and radiometric scanning respectively (Tripathy et al., 2003). […]

[4] = system: defense gene (Phenylalanine-ammonia lyase) expression; settings: coadministration, leaves; cited from earlier work

Compound	challenge of [3H]NAE 14:0 binding by CB receptor antagonist [1]	affinity of recombinant protein for NAE 14:0 (saturation binding) ([2]; recombinant At1g26440 expressed in E. coli, DDM solubilized)	binding activity of [3H]NAE 14:0 (affinity) ([1]; membrane-associated, saturable, in lower nanomolar range)	effect on NAE14:0 binding [3]	effect on NAE-regulated defense gene expression [4]	effect on NAE14:0 binding ([2]; 5 nM SR144528, [3H]NAE 14:0 50 nM, recombinant At1g26440 gene product)	effect on NAE specific binding ([2]; higher concentrations of SR144528 (above 5 nM), preparation not specified)
Cc1c(C(=O)NN2CCOCC2)nn(-c2ccc(Cl)cc2Cl)c1-c1ccc(I)cc1 [AM 281]	potently challenged						
CCCCCCCCCCCCCC(=O)NCCO [NAE 14:0]		high affinity	high affinity				
SR144528	potently challenged			diminished	blocked	diminished	eliminated
